PMC4483627 (Marine Drugs, 2015)
Read-outs that look alike come from different tables or passages of the source. Positions of bridges follow the written chain, without caps; N, C: chain ends. Residues, ends and D or L forms follow the SMILES beside them.

Experiments:
[1] = target: T1, rat nAChR α4β2 (Rattus norvegicus, UniProt P09483+P12390); assay: cell-based
T1 construct: expressed in transfected cells; host or cells: Xenopus oocytes injected with cRNA

[2] = target: T2, rat nAChR α3β4 (Rattus norvegicus, UniProt P04757+P12392); assay: cell-based
T2 construct: expressed in transfected cells; host or cells: Xenopus oocytes injected with cRNA
T2 sequence (P04757 26-499 limits assumed): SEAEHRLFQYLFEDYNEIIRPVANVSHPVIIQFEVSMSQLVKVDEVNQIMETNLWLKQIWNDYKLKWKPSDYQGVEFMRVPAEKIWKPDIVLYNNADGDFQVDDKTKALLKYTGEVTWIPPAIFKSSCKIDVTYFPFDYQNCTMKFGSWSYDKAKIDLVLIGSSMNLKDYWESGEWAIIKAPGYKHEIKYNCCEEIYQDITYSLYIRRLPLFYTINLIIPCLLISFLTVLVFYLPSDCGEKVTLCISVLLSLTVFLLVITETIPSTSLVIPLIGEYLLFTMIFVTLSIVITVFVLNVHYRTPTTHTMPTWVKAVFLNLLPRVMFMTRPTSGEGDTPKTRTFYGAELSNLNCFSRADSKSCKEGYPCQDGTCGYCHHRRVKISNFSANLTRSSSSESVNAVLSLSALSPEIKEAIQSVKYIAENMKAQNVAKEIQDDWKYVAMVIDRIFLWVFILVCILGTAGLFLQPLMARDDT
T2 sequence (P12392 21-495 limits assumed): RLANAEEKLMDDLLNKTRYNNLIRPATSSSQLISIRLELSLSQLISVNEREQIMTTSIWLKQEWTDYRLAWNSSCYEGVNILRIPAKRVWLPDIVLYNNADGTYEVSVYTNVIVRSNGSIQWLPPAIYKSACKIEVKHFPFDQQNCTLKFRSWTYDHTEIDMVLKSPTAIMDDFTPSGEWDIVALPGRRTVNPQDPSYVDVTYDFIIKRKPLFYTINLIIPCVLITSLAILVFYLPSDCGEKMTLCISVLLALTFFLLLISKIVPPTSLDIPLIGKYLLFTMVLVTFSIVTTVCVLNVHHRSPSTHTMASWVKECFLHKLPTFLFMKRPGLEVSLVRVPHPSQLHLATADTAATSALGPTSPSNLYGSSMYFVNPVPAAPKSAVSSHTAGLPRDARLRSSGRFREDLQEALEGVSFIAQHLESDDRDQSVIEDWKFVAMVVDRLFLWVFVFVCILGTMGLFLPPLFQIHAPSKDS

[3] = target: T3, rat nAChR α2β2 (Rattus norvegicus, UniProt P12389+P12390); assay: cell-based
T3 construct: expressed in transfected cells; host or cells: Xenopus oocytes injected with cRNA
T3 sequence (P12389 28-511 limits assumed): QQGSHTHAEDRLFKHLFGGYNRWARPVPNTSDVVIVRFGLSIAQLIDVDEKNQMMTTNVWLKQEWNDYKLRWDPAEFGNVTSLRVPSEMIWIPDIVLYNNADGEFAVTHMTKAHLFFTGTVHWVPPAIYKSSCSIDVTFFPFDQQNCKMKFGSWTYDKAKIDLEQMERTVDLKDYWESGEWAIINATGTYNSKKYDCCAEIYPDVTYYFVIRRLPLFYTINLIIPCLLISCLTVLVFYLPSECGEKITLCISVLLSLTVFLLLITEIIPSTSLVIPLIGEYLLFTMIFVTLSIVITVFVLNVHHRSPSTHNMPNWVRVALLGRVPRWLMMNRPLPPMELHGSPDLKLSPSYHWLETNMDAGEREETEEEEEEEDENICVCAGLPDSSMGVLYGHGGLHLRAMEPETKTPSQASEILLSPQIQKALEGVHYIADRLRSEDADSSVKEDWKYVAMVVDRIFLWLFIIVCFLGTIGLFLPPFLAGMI
T3 sequence (P12390 25-500 limits assumed): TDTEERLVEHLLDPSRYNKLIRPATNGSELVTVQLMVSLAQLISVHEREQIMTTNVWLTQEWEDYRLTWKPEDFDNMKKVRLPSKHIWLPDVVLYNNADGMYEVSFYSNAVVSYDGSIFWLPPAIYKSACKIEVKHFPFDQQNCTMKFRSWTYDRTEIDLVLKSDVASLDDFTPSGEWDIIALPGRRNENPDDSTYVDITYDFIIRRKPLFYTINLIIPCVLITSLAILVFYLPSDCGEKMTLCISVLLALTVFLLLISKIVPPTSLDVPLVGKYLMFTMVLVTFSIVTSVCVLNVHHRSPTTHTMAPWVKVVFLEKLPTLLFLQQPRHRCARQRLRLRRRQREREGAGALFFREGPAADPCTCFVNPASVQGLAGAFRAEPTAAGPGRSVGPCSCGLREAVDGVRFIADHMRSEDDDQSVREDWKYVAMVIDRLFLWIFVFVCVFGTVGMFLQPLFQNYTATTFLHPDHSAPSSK

[4] = target: T4, rat nAChR α7 (Rattus norvegicus, UniProt Q05941); assay: cell-based
T4 construct: expressed in transfected cells; host or cells: Xenopus oocytes injected with cRNA
T4 sequence (Q05941 23-502 limits assumed): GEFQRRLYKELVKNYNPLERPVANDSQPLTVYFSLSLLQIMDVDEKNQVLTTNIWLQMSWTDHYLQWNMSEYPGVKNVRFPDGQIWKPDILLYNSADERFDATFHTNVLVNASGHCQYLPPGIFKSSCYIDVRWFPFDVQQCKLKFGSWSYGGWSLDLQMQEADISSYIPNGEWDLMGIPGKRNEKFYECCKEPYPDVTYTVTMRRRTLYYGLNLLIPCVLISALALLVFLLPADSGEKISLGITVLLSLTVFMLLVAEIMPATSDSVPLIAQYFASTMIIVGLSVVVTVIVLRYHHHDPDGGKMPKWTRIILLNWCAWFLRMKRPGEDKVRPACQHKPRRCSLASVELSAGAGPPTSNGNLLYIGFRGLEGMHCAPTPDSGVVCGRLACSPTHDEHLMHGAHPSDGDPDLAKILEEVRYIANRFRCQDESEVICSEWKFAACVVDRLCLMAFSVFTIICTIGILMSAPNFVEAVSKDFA

[5] = target: T5, rat nAChR α4β4 (Rattus norvegicus, UniProt P09483+P12392); assay: cell-based
T5 construct: expressed in transfected cells; host or cells: Xenopus oocytes injected with cRNA
T5 sequence (P09483 31-630 limits assumed): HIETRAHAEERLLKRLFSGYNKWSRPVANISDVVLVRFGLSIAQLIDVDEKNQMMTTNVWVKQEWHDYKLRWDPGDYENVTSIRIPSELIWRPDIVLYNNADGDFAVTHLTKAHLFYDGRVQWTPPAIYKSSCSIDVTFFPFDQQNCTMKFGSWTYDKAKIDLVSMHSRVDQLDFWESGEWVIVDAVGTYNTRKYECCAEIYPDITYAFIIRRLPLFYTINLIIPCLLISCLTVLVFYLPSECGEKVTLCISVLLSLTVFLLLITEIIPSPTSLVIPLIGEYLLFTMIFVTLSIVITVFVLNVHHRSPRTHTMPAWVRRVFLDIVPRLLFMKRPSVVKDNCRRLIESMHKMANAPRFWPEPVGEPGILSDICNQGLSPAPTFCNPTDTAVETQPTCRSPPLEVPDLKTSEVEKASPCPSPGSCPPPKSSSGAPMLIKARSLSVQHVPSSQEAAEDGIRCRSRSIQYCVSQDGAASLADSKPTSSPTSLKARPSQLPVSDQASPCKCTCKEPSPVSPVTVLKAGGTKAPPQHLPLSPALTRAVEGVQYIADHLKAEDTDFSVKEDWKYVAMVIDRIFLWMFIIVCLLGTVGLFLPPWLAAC
T5 sequence (P12392 21-495 limits assumed): as the sequence (P12392 21-495 limits assumed) above

[6] = target: T6, rat nAChR α9α10 (Rattus norvegicus, UniProt P43144+Q9JLB5); assay: cell-based
T6 construct: expressed in transfected cells; host or cells: Xenopus oocytes injected with cRNA
T6 sequence (P43144 26-479 limits assumed): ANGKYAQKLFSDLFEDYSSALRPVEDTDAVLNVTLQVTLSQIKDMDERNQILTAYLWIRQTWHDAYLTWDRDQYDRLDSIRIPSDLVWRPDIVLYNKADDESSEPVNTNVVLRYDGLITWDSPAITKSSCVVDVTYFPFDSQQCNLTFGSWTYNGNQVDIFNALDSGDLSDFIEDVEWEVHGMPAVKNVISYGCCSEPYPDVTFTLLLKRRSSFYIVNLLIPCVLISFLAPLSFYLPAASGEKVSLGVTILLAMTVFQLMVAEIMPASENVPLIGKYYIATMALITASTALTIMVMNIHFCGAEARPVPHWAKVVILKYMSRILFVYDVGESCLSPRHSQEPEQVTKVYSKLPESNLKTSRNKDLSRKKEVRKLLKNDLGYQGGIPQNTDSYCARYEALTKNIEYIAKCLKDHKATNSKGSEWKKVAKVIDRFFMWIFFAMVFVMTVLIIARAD
T6 sequence (Q9JLB5 25-447 limits assumed): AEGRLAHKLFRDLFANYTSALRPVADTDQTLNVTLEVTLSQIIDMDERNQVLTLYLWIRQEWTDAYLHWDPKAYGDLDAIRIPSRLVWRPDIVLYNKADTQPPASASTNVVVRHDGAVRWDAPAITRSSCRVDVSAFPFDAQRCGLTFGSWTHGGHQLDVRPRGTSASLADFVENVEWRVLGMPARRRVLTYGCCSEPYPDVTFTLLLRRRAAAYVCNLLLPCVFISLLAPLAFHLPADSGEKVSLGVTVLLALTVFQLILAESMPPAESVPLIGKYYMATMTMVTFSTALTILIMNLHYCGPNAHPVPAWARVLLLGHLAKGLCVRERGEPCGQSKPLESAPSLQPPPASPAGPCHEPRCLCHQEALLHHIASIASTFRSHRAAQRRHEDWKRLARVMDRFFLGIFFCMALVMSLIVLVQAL

[7] = target: T7, rat nAChR α2β4 (Rattus norvegicus, UniProt P12389+P12392); assay: cell-based; conditions: IC50 α2β4
T7 construct: expressed in transfected cells; host or cells: Xenopus oocytes injected with cRNA
T7 sequence (P12389 28-511 limits assumed): as the sequence (P12389 28-511 limits assumed) above
T7 sequence (P12392 21-495 limits assumed): as the sequence (P12392 21-495 limits assumed) above

[8] = target: T8, rat nAChR α3β2 (Rattus norvegicus, UniProt P04757+P12390); assay: cell-based; assay type: cell-based
T8 construct: expressed in transfected cells; host or cells: Xenopus oocytes injected with cRNA
T8 sequence (P04757 26-499 limits assumed): as the sequence (P04757 26-499 limits assumed) above
T8 sequence (P12390 25-500 limits assumed): as the sequence (P12390 25-500 limits assumed) above

[9] = target: T8, rat nAChR α3β2; conditions: cited from earlier work
[10] = target: T8, rat nAChR α3β2; assay: cell-based; assay type: cell-based; remark: listed apart in the source
[11] = target: T9, rat nAChR α6/α3β2β3 (Rattus norvegicus, UniProt P04757+P12390+P12391+P43143); assay: cell-based
T9 construct: expressed in transfected cells; host or cells: Xenopus oocytes injected with cRNA

T1 sequence (P09483 31-630 limits assumed): as the sequence (P09483 31-630 limits assumed) above
T1 sequence (P12390 25-500 limits assumed): as the sequence (P12390 25-500 limits assumed) above

Compound	IC50 [1]	IC50 [2]	IC50 [3]	IC50 [4]	IC50 [5]	IC50 [6]	IC50 [7]	IC50 [8]	IC50 [9]	kon [10]	koff ([10]; SEM)	IC50 [11]
CC(C)C[C@@H]1NC(=O)[C@H](CCC(=O)O)NC(=O)[C@@H]2CCCN2C(=O)[C@H](CC(N)=O)NC(=O)[C@H](CO)NC(=O)[C@H](C(C)C)NC(=O)[C@H](Cc2c[nH]cn2)NC(=O)[C@@H]2CSSC[C@H](NC(=O)[C@H](CCC(=O)O)NC(=O)[C@@H]3CCCN3)C(=O)N[C@@H](CSSC[C@@H](C(N)=O)NC1=O)C(=O)N[C@@H]([C@@H](C)O)C(=O)N[C@@H](Cc1c[nH]cn1)C(=O)N1CCC[C@H]1C(=O)N[C@@H](C)C(=O)N2 [Mr1.7[H13N]] (H-PECCTHPACHVSNPELC-NH2; disulfide 3-9, 4-17)	> 10 µM	> 10 µM	> 10 µM	2.42 µM	> 10 µM	1.83 µM	> 10 µM	0.541 µM	–	–	–	–
Vc1.1	–	–	–	–	–	–	–	–	5.53 µM	–	–	–
CC(C)C[C@@H]1NC(=O)[C@H](CCC(=O)O)NC(=O)[C@@H]2CCCN2C(=O)[C@H](Cc2c[nH]cn2)NC(=O)[C@H](CO)NC(=O)[C@H](C(C)C)NC(=O)[C@H](Cc2c[nH]cn2)NC(=O)[C@@H]2CSSC[C@H](NC(=O)[C@H](CCC(=O)O)NC(=O)[C@@H]3CCCN3)C(=O)N[C@@H](CSSC[C@@H](C(N)=O)NC1=O)C(=O)N[C@@H]([C@@H](C)O)C(=O)N[C@@H](Cc1c[nH]cn1)C(=O)N1CCC[C@H]1C(=O)N[C@@H](C)C(=O)N2 [Mr1.7] (H-PECCTHPACHVSHPELC-NH2; disulfide 3-9, 4-17)	> 10 µM	> 10 µM	> 10 µM	> 10 µM	> 10 µM	0.186 µM	> 10 µM	–	–	91300 M⁻¹ s⁻¹	0.00312 s⁻¹	0.284 µM
